Measurements from PubChem BioAssay (NCI).
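Cells were grown in 96-well plates and exposed to each compound for 48 hours at five concentrations; endpoints were interpolated linearly between bracketing concentrations, or set to the highest concentration if not reached. Abbreviation: GI50, concentration required for 50% inhibition of growth. TGI marks complete inhibition of growth.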

Columns and labels:
Assay in all cases: DTP human tumour cell line panel, 48 h
[1] = tested on: OVCAR-3 ovarian
[2] = tested on: HCC-2998 colon
[3] = tested on: CCRF-CEM leukemia
[4] = tested on: U251 CNS
[5] = tested on: A498 renal
[6] = tested on: KM20L2 colon
[7] = tested on: XF 498 CNS
[8] = tested on: COLO 205 colon
[9] = tested on: SK-MEL-5 melanoma
[10] = tested on: MCF7 breast

Structure (SMILES) | TGI [1] [µM] | TGI [2] [µM] | TGI [3] [µM] | TGI [4] [µM] | TGI [5] [µM] | TGI [6] [µM] | TGI [7] [µM] | TGI [8] [µM] | TGI [9] [µM] | GI50 [1] [µM] | GI50 [2] [µM] | GI50 [3] [µM] | GI50 [4] [µM] | GI50 [5] [µM] | GI50 [8] [µM] | GI50 [9] [µM] | GI50 [10] [µM] | TGI [10] [µM] | GI50 [6] [µM]
CC(=O)NC(Cc1ccccc1)C(=S)N1CCCC1 (stereo unspecified) | > 100 | > 100 | > 100 | > 100 | > 100 | > 100 | > 100 | > 100 | > 100 | – | – | – | – | – | – | – | – | – | –
CNCc1ccc(C)c(NC(=O)c2ccc(Nc3nc(-c4ccccc4)c4ccccc4n3)cc2)c1 | 3.84 | 3.58 | 5.43 | 2.96 | 3.04 | – | – | 3.57 | 3.12 | 1.9 | 1.96 | 2.07 | 1.54 | 1.53 | 1.84 | 1.71 | 1.58 | 3.25 | –
O=C(Cc1nc2ccccc2s1)C(=O)Nc1ccccc1C(F)(F)F | > 100 | > 100 | > 100 | > 100 | > 100 | > 100 | > 100 | > 100 | > 100 | – | – | – | – | – | – | – | – | – | –
CCOC(=O)C(Cc1ccc(N(CCCl)CCCl)cc1)NC(=O)C(CC(C)C)NC(C)=O (stereo unspecified) | 1.4 | 5.95 | 3.31 | 8.13 | 10.6 | – | – | 2.7 | 9.82 | 0.332 | 1.82 | 0.232 | 1.39 | 2.29 | 1.25 | 2.45 | 0.699 | 15.4 | –
NCCN.O=N[O-].O=N[O-].O=N[O-].O=N[O-].[Co+3].[K+] | > 100 | – | > 100 | > 100 | > 100 | > 100 | – | > 100 | > 100 | > 100 | – | > 100 | > 100 | > 100 | > 100 | > 100 | – | – | > 100
Cc1ccc(S(=O)(=O)NC2(C=O)CCC(C(C)(C)C)CC2)cc1 (stereo unspecified) | > 100 | > 100 | – | > 100 | > 100 | 75.4 | > 100 | 73.3 | 47.2 | – | – | – | – | – | – | – | – | – | –
C[As](C)SCC(COC(=O)c1ccccc1)OC(=O)c1ccccc1 (stereo unspecified) | 0.023 | 0.232 | 0.759 | 6.67 | 1.15 | – | – | 1.88 | 0.0678 | – | 0.104 | 0.0305 | 1.71 | 0.135 | 0.0514 | 0.015 | 0.0462 | 0.312 | –
CCc1cccc(C(C)C)c1C1C(=O)C(=O)N(c2nc3ccccc3s2)C(=O)C1=O | > 100 | > 100 | > 100 | > 100 | > 100 | > 100 | – | > 100 | > 100 | – | – | – | – | – | – | – | – | – | –
O=C(/C=C\c1ccc(Cl)c(Cl)c1)c1ccccc1 | 18.9 | 16.9 | 8.78 | 15.6 | 25.2 | – | – | 29.7 | 30.9 | 6.34 | 4.75 | 2.68 | 3.34 | 12.4 | 13.6 | 16.7 | 1.89 | 5.58 | –
O=C(NC(c1ccccc1)C(O)C(=O)OCc1ccc2c(c1)C(=O)c1ccccc1C2=O)c1ccccc1 (stereo unspecified) | 34.6 | > 100 | > 100 | 18.3 | 15.7 | > 100 | 35.9 | > 100 | 40.3 | – | – | – | – | – | – | – | – | > 100 | –
CC[N+]1(C)CCC(O)(/C=C/c2ccccc2)C(C(=O)/C=C/c2ccccc2)C1 (stereo unspecified) | 28 | 30.8 | 10.8 | 22.5 | 38.9 | 49.3 | 26.7 | 8.19 | 32.7 | – | – | – | – | – | – | – | – | > 23.7 | –
Cc1nn(C(=O)CC(=O)Nc2ccccc2Cl)c(C)c1N=Nc1ccccc1Cl | > 100 | > 100 | > 100 | > 100 | > 100 | > 100 | > 100 | > 100 | > 100 | – | – | – | – | – | – | – | – | – | –
O=[N+]([O-])c1ccc(-c2ccc(C3=Nn4c(nnc4-c4ccc(Cl)cc4)SC3)o2)cc1 | > 100 | > 100 | > 100 | > 70.7 | > 100 | > 100 | 60.1 | > 100 | > 100 | – | – | – | – | – | – | – | – | – | –
CCCCc1ccc(C(N)=O)nc1 | > 100 | > 100 | > 100 | > 100 | > 100 | – | – | > 100 | > 100 | > 100 | > 100 | > 100 | > 100 | 48.1 | > 100 | > 100 | > 100 | > 100 | –
COc1ccc(/C=C2\CN(Cc3cn(CCCNc4ccnc5cc(Cl)ccc45)nn3)C/C(=C\c3ccc(OC)cc3)C2=O)cc1 | 18.1 | 27.9 | 7.01 | 18.9 | 32.8 | – | – | 26.8 | 22.3 | 4.91 | 13.8 | 2.39 | 5.53 | 2.2 | 12.2 | 10.5 | 2.01 | 10.1 | –
